# Laboratory results as given in patent US7598234B2, “Steroid derived antibiotics” (Brigham Young University, priority 1998, dated 2009).
# Columns and labels:
# [1] = tested on: E. coli (ATCC 10798); assay: MIC and MBC measurement with E. coli (ATCC 10798); format: cell-based, Escherichia coli
# Source text: (§1) General: Microorganisms. Reference strains were purchased from the American Type Culture Collection (Rockville, Md.) or Bactrol disks from Difeo Laboratories (Detroit, Mich.). The following specific ATCC strains were used: 10798 Escherichia coli, 25922 Escherichia coli, 13883 Klebsiella pneumoniae, 27853 Pseudomonas aeruginosa, 14028 Salmonella typhimurium, 29212 Enterococcus faecalis, 25923 Staphylococcus aureus, 19615 Streptococcus pyogenes, and 90028 Candida albicans. Bacterial strains were maintained on Mueller-Hinton agar plates, and Candida albicans was maintained on Sabouraud Dextrose agar plates.
# (§2) Tryptic soy broth (TSB) was made by dissolving 27.5 grams of tryptic soy broth without dextrose (DIFCO Laboratories) in 1 liter of deionized water and sterilizing at 121° C. for 15 minutes. Solid agar (TSA) plates were made by dissolving 6.4 grams of tryptic soy broth and 12 grams of agar (purified grade, Fischer Scientific) in 800 mL of deionized water and sterilizing at 121° C. for 20 minutes. Aliquots (20 mL) of the homogeneous solution were then poured in sterile plastic petri dishes (100×15 mm, Fisher Scientific). Solutions of compounds were made by dissolving the HCl salt of the respective compound into an appropriate amount of deionized and sterilized water followed by microfiltration.
# (§3) Aliquots of 1 mL of the suspension were added to test tubes containing 1 mL TSB and incrementally varied concentrations of cholic acid derivatives and/or erythromycin or novobiocin. In the sensitization experiments, erythromycin or novobiocin were added 15 minutes later than the cholic acid derivatives. The samples were subjected to stationary incubation at 37° C. for 24 hours. Sample turbidity was determined by measuring absorption at 760 nm (HP 8453 UV-Visible Chemstation, Hewlett Packard). Additionally, an alliquot from each of the samples showing no measurable turbidity was subcultured on TSA plates (alliquots were diluted to provide fewer than 300 CFU). Colonies that grew on the subculture after overnight incubation were counted and the number of CFU/mL in the samples were calculated. The calculated values were compared to the number of CFU/mL in the original inoculum.
# [2] = tested on: E. coli (ATCC 10798); assay: Sensitization to erythromycin (concentration lowering the MIC of erythromycin), E. coli (ATCC 10798); format: cell-based, Escherichia coli; details: for (a) Concentration required to lower the MIC of erythromycin from 70 to 1 μg/mL / (b) MBC with 1 μg/mL erythromycin / FIC values with erythromycin: Table 9, Escherichia coli (ATCC 10798)
# Description: (§4) Alternatively, “fractional inhibitory concentration (FIC)” is also useful for determination of synergy between the compounds of the invention, or the compounds in combination with known antibiotics. FICs can be performed by checkerboard titrations of compounds in one dimension of a microtiter plate, and of antibiotics in the other dimension, for example. The FIC is calculated by looking at the impact of one antibiotic on the MIC of the other and vice versa. […] Preferably, an FIC of less than 0.5 is obtained for synergism. As used herein, FIC can be determined as follows:
# as §3
# (§5) Ability to permeabilize outer membrane: Compounds 11, 106, and 108-114 (FIG. 1) were tested for antibiotic activity. They were also tested for the ability to permeabilize the outer membrane of Gram-negative bacteria, causing sensitization to hydrophobic antibiotics that cannot cross the outer membrane. The permeabilization of the outer membrane was measured using erythromycin and novobiocin.
# (§6) The MICs of erythromycin and novobiocin against E. coli (ATCC 10798) at 70 and >500 μg/mL were measured.
# [3] = tested on: E. coli (ATCC 10798); assay: Sensitization to novobiocin (concentration lowering the MIC of novobiocin), E. coli (ATCC 10798); format: cell-based, Escherichia coli; details: Table 9; Escherichia coli (ATCC 10798)
# Description: as §4, §3, §5, §6
# [4] = tested on: Pseudomonas aeruginosa (ATCC 27853); assay: MIC and MBC measurement with Pseudomonas aeruginosa (ATCC 27853); format: cell-based; details: P. aureginosa (ATCC 27853); starting MIC in sensitization tests
# Source text: as §1, §2, §3
# [5] = tested on: E. coli (ATCC 25922); assay: MIC and MBC measurement with E. coli (ATCC 25922); format: cell-based, Escherichia coli
# Source text: as §1, §2
# as §3, with “inoculum. […]” for “inoculum.”
# [6] = tested on: Staphylococcus aureus ATCC 25923; assay: MIC and MBC measurement with Staphylococcus aureus ATCC 25923; format: cell-based; details: Table 10; Staphylococcus aureus ATCC 25923
# Source text: as §1, §2
# as §3, with “inoculum. […]” for “inoculum.”
# [7] = Table 9, Escherichia coli (ATCC 10798)
Compound,"MBC [1, 7]","MIC [1, 7]",(a) Concentration required to lower the MIC of erythromycin from 70 to 1 μg/mL [2],(b) MBC with 1 μg/mL erythromycin [2],FIC values with erythromycin [2],other results
COCCC[C@@H](C)[C@H]1CC[C@H]2[C@@H]3[C@H](OCCCN)C[C@@H]4C[C@H](OCCCN)CC[C@]4(C)[C@H]3C[C@H](OCCCN)[C@]12C [Compound 111],33 µg/mL,30 µg/mL,1.0 µg/mL,20 µg/mL,0.048,(d) Concentration required to lower the MIC of novobiocin from >500 to 1 μg/mL [3]: 2.0 µg/mL; FIC values with novobiocin [3]: 0.069
CCCCCOCCC[C@@H](C)[C@H]1CC[C@H]2[C@@H]3[C@H](OCCCN)C[C@@H]4C[C@H](OCCCN)CC[C@]4(C)[C@H]3C[C@H](OCCCN)[C@]12C [Compound 113],5.0 µg/mL,3.0 µg/mL,0.8 µg/mL,2.0 µg/mL,0.28,(d) Concentration required to lower the MIC of novobiocin from >500 to 1 μg/mL [3]: 1.0 µg/mL; FIC values with novobiocin [3]: 0.27
CCCCCCCCOCCC[C@@H](C)[C@H]1CC[C@H]2[C@@H]3[C@H](OCCCN)C[C@@H]4C[C@H](OCCCN)CC[C@]4(C)[C@H]3C[C@H](OCCCN)[C@]12C [Compound 114],10 µg/mL,3.0 µg/mL,3.0 µg/mL,3.0 µg/mL,1.0,
C[C@H](CCCOS(=O)(=O)O)[C@H]1CC[C@H]2[C@@H]3[C@H](OCCCN)C[C@@H]4C[C@H](OCCCN)CC[C@]4(C)[C@H]3C[C@H](OCCCN)[C@]12C [Compound 132],,,,,,MIC ([1]; E. coli (ATCC 10798)): 60 µg/mL; concentration required to lower the MIC of erythromycin to 1 μg/mL ([2]; E. coli (ATCC 10798)): 4.0 µg/mL
C[C@H](CCCN)[C@H]1CC[C@H]2[C@@H]3[C@H](OCCCN)C[C@@H]4C[C@H](OCCCN)CC[C@]4(C)[C@H]3C[C@H](OCCCN)[C@]12C [Compound 135],,,,,,"MBC (in words) ([1]; FIG. 5, strain not named): relatively high; MIC (in words) ([1]; FIG. 5, strain not named): relatively high"
"CC[C@H]1OC(=O)[C@H](C)[C@@H](O[C@H]2C[C@@](C)(OC)[C@@H](O)[C@H](C)O2)[C@H](C)[C@@H](O[C@@H]2O[C@H](C)C[C@H](N(C)C)[C@H]2O)[C@](C)(O)C[C@@H](C)C(=O)[C@H](C)[C@@H](O)[C@]1(C)O [erythromycin, reference compound]",,,,,,"MIC of the antibiotic alone [4]: 240 μg/mL to 5 μg/mL with P. aureginosa (ATCC 27853).; MIC ([5]; Escherichia coli, ATCC25922, E. coli (ATCC 25922), starting MIC in sensitization tests, read-out: MIC of erythromycin alone): 36 µg/mL"
"CO[C@@H]1[C@@H](OC(N)=O)[C@@H](O)[C@H](Oc2ccc3c(O)c(NC(=O)c4ccc(O)c(CC=C(C)C)c4)c(=O)oc3c2C)OC1(C)C [novobiocin, reference compound]",,,,,,MIC of the antibiotic alone [4]: >500 μg/mL to 1 μg/mL with P. aureginosa (ATCC 27853).
"polymyxin B [PMB, reference compound]",,,,,,"MBC [6]: >100 µg/mL; MBC ([5]; Table 10, Escherichia coli ATCC 25922): 1.8 µg/mL"
